Patent US11547681B2, “N-acylethanolamide derivatives and uses thereof” (ELIEM THERAPEUTICS, INC., priority 2016, dated 2023)

Assay: in vitro
Conditions: for Concentration (μM) of analyte PEA, 0 min / Concentration (μM) of analyte PEA, 10 min / Concentration (μM) of analyte PEA, 20 min / Concentration (μM) of analyte PEA, 30 min / Concentration (μM) of analyte PEA, 60 min / % Remaining of Initial (n = 1), 0 min / % Remaining of Initial (n = 1), 10 min / % Remaining of Initial (n = 1), 20 min / % Remaining of Initial (n = 1), 30 min / % Remaining of Initial (n = 1), 60 min: 1 μM; for % Remaining of Initial (n = 1), 0 min: s9, 0 h; for % Remaining of Initial (n = 1), 10 min: s9, 10 min; for % Remaining of Initial (n = 1), 20 min: s9, 20 min; for % Remaining of Initial (n = 1), 30 min: s9, 0.5 h; for % Remaining of Initial (n = 1), 60 min: s9, 1 h; for half-life at 1 μM: s9, Half-life (min)
Protocol: Reaction mixture, minus cofactors, was prepared as described below. Test article was added into the reaction mixture at a final concentration of 1 μM. […] An aliquot of the reaction mixture (without cofactor cocktail) was equilibrated in a shaking water bath at 37° C. for 3 minutes. The reaction was initiated by the addition of cofactor cocktail (see below), and the mixture was then incubated in a shaking water bath at 37° C. Aliquots (100 μL) were withdrawn 0, 10, 20, 30 and 60 minutes. Test article samples were immediately combined with 300 μL of ice-cold acetonitrile containing 1% formic acid. Control samples were immediately combined with 400 μL of ice-cold 50/50 acetonitrile (ACN)/dH2O containing 0.1% formic acid and internal standard to terminate the reaction. Samples were then mixed and centrifuged to precipitate proteins. Calibration standards were prepared in matched matrix. Samples and standards were assayed by LC-MS/MS using electrospray ionization for both the dosed prodrug and the expected drug (PEA). Analytical conditions are outlined in Appendix 8-1. Test article concentration at each time point was compared to the test article concentration at time 0 to determine the percent remaining at each time point. Half-lives were calculated using GraphPad software, fitting to a single-phase exponential decay equation.
Reaction mixture, minus cofactors, was prepared as described below. Test article was added into the reaction mixture at a final concentration of 1 μM. […] An aliquot of the reaction mixture (without cofactor cocktail) was equilibrated in a shaking water bath at 37° C. for 5 minutes. Reaction was initiated by the addition of cofactor cocktail (see below), and mixture was then incubated in a shaking water bath at 37° C. Aliquots (100 μL) were withdrawn at 0, 10, 20, 30, and 60 minutes. Test article samples were immediately combined with 300 μL of ice-cold acetonitrile containing 1% formic acid. Control samples were immediately combined with 400 μL of ice-cold 50/50 acetonitrile (ACN)/dH2O containing 0.1% formic acid and internal standard to terminate the reaction. Samples were then mixed and centrifuged to precipitate proteins. Calibration standards were prepared in matched matrix. Samples and standards were assayed by LC-MS/MS using electrospray ionization for both dosed prodrug and expected drug (PEA). Analytical conditions are outlined in Appendix 10-1. Test article concentration at each time point was compared to test article concentration at time 0 to determine the percent remaining at each time point. Half-lives were calculated using GraphPad software, fitting to a single-phase exponential decay equation.
The reaction mixture, minus cofactors, was prepared as described below. Test article was added into the reaction mixture at a final concentration of 1 μM. […] An aliquot of the reaction mixture (without cofactor cocktail) was equilibrated in a shaking water bath at 37° C. for 3 minutes. Reaction was initiated by the addition of cofactor cocktail (see below), and the mixture was then incubated in a shaking water bath at 37° C. Aliquots (100 μL) were withdrawn at 0, 10, 20, 30, and 60 minutes. Test article samples were immediately combined with 300 μL of ice-cold acetonitrile containing 1% formic acid. Control samples were immediately combined with 400 μL of ice-cold 50/50 acetonitrile (ACN)/dH2O containing 0.1% formic acid and internal standard to terminate the reaction. Samples were then mixed and centrifuged to precipitate proteins. Calibration standards were prepared in matched matrix. Samples and standards were assayed by LC-MS/MS using electrospray ionization for both dosed prodrug and expected drug (PEA). Analytical conditions are outlined in Appendix 13-1. Test article concentration at each time point was compared to the test article concentration at time 0 to determine the percent remaining at each time point.

[1] = male, Sprague-Dawley, rat, calculated half-life in parentheses

## CCCCCCCCCCCCCCCC(=O)NCCOC(=O)CCC [Compound I-2]
both, human
  Concentration (μM) of analyte PEA, 0 min: 0.20 µM
  Concentration (μM) of analyte PEA, 10 min: 0.23 µM
  Concentration (μM) of analyte PEA, 20 min: 0.18 µM
  Concentration (μM) of analyte PEA, 30 min: 0.096 µM
  Concentration (μM) of analyte PEA, 60 min: 0.033 µM
  % Remaining of Initial (n = 1), 0 min: 100%
  % Remaining of Initial (n = 1), 10 min: 6.0%
  % Remaining of Initial (n = 1), 20 min: 1.3%
  % Remaining of Initial (n = 1), 30 min: <1.0%
  % Remaining of Initial (n = 1), 60 min: <1.0%
male, Beagle, dog
  Concentration (μM) of analyte PEA, 0 min: 0.23 µM
  Concentration (μM) of analyte PEA, 10 min: 0.38 µM
  Concentration (μM) of analyte PEA, 20 min: 0.35 µM
  Concentration (μM) of analyte PEA, 30 min: 0.21 µM
  Concentration (μM) of analyte PEA, 60 min: 0.11 µM
  % Remaining of Initial (n = 1), 0 min: 100%
  % Remaining of Initial (n = 1), 10 min: 5.1%
  % Remaining of Initial (n = 1), 20 min: 2.0%
  % Remaining of Initial (n = 1), 30 min: <1.0%
  % Remaining of Initial (n = 1), 60 min: <1.0%
male, CD-1, mouse
  Concentration (μM) of analyte PEA, 0 min: 0.51 µM
  Concentration (μM) of analyte PEA, 10 min: 0.26 µM
  Concentration (μM) of analyte PEA, 20 min: 0.19 µM
  Concentration (μM) of analyte PEA, 30 min: 0.12 µM
  Concentration (μM) of analyte PEA, 60 min: 0.022 µM
  % Remaining of Initial (n = 1), 0 min: 100%
  % Remaining of Initial (n = 1), 10 min: <1.0%
  % Remaining of Initial (n = 1), 20 min: <1.0%
  % Remaining of Initial (n = 1), 30 min: <1.0%
  % Remaining of Initial (n = 1), 60 min: <1.0%
  half-life at 1 μM: < 0.0167 h
male, Sprague-Dawley, rat
  Concentration (μM) of analyte PEA, 0 min: 0.50 µM
  Concentration (μM) of analyte PEA, 10 min: 0.31 µM
  Concentration (μM) of analyte PEA, 20 min: 0.17 µM
  Concentration (μM) of analyte PEA, 30 min: 0.11 µM
  Concentration (μM) of analyte PEA, 60 min: 0.023 µM
  % Remaining of Initial (n = 1), 0 min: 100%
  % Remaining of Initial (n = 1), 10 min: <1.0%
  % Remaining of Initial (n = 1), 20 min: <1.0%
  % Remaining of Initial (n = 1), 30 min: <1.0%
  % Remaining of Initial (n = 1), 60 min: <1.0%
  half-life at 1 μM: < 0.0167 h

## CCCCCCCCCCCCCCCC(=O)NCCOC(=O)CCC(=O)OCC(COC(=O)CCCCCCC)OC(=O)CCCCCCC (stereo not drawn) [Compound I-3, PEA-Succinate-Glycerol-Di-Caprylic]
both, human
  Concentration (μM) of analyte PEA, 0 min: 0.00032 µM
  Concentration (μM) of analyte PEA, 10 min: 0.0058 µM
  Concentration (μM) of analyte PEA, 20 min: 0.017 µM
  Concentration (μM) of analyte PEA, 30 min: 0.015 µM
  Concentration (μM) of analyte PEA, 60 min: 0.0096 µM
  % Remaining of Initial (n = 1), 0 min: 100%
  % Remaining of Initial (n = 1), 10 min: 104%
  % Remaining of Initial (n = 1), 20 min: 89%
  % Remaining of Initial (n = 1), 30 min: 95%
  % Remaining of Initial (n = 1), 60 min: 66%
  half-life at 1 μM: > 1 h
male, Beagle, dog
  Concentration (μM) of analyte PEA, 0 min: 0.010 µM
  Concentration (μM) of analyte PEA, 10 min: 0.030 µM
  Concentration (μM) of analyte PEA, 20 min: 0.035 µM
  Concentration (μM) of analyte PEA, 30 min: 0.031 µM
  Concentration (μM) of analyte PEA, 60 min: 0.029 µM
  % Remaining of Initial (n = 1), 0 min: 100%
  % Remaining of Initial (n = 1), 10 min: 104%
  % Remaining of Initial (n = 1), 20 min: 89%
  % Remaining of Initial (n = 1), 30 min: 80%
  % Remaining of Initial (n = 1), 60 min: 86%
  half-life at 1 μM: > 1 h
male, CD-1, mouse
  Concentration (μM) of analyte PEA, 0 min: 0.013 µM
  Concentration (μM) of analyte PEA, 10 min: 0.031 µM
  Concentration (μM) of analyte PEA, 20 min: 0.022 µM
  Concentration (μM) of analyte PEA, 30 min: 0.023 µM
  Concentration (μM) of analyte PEA, 60 min: 0.025 µM
  % Remaining of Initial (n = 1), 0 min: 100%
  % Remaining of Initial (n = 1), 10 min: 82%
  % Remaining of Initial (n = 1), 20 min: 61%
  % Remaining of Initial (n = 1), 30 min: 78%
  % Remaining of Initial (n = 1), 60 min: 61%
  half-life at 1 μM: > 1 h
male, CD-1, mouse, calculated half-life in parentheses
  half-life at 1 μM: 1.45 h
male, Sprague-Dawley, rat
  Concentration (μM) of analyte PEA, 0 min: 0.015 µM
  Concentration (μM) of analyte PEA, 10 min: 0.045 µM
  Concentration (μM) of analyte PEA, 20 min: 0.033 µM
  Concentration (μM) of analyte PEA, 30 min: 0.017 µM
  Concentration (μM) of analyte PEA, 60 min: 0.013 µM
  % Remaining of Initial (n = 1), 0 min: 100%
  % Remaining of Initial (n = 1), 10 min: 66%
  % Remaining of Initial (n = 1), 20 min: 69%
  % Remaining of Initial (n = 1), 30 min: 71%
  % Remaining of Initial (n = 1), 60 min: 52%
  half-life at 1 μM: > 1 h
[1]
  half-life at 1 μM: 1.2 h

## CC/C=C\C/C=C\C/C=C\C/C=C\C/C=C\CCCC(=O)OCCNC(=O)CCCCCCCCCCCCCCC [Compound I-5]
both, human
  Concentration (μM) of analyte PEA, 0 min: 0.024 µM
  Concentration (μM) of analyte PEA, 10 min: 0.036 µM
  Concentration (μM) of analyte PEA, 20 min: 0.036 µM
  Concentration (μM) of analyte PEA, 30 min: 0.025 µM
  Concentration (μM) of analyte PEA, 60 min: 0.018 µM
  % Remaining of Initial (n = 1), 0 min: 100%
  % Remaining of Initial (n = 1), 10 min: 80%
  % Remaining of Initial (n = 1), 20 min: 81%
  % Remaining of Initial (n = 1), 30 min: 70%
  % Remaining of Initial (n = 1), 60 min: 72%
  half-life at 1 μM: > 1 h
male, Beagle, dog
  Concentration (μM) of analyte PEA, 0 min: 0.024 µM
  Concentration (μM) of analyte PEA, 10 min: 0.044 µM
  Concentration (μM) of analyte PEA, 20 min: 0.036 µM
  Concentration (μM) of analyte PEA, 30 min: 0.041 µM
  Concentration (μM) of analyte PEA, 60 min: 0.038 µM
  % Remaining of Initial (n = 1), 0 min: 100%
  % Remaining of Initial (n = 1), 10 min: 72%
  % Remaining of Initial (n = 1), 20 min: 79%
  % Remaining of Initial (n = 1), 30 min: 74%
  % Remaining of Initial (n = 1), 60 min: 85%
  half-life at 1 μM: > 1 h
male, CD-1, mouse
  Concentration (μM) of analyte PEA, 0 min: 0.046 µM
  Concentration (μM) of analyte PEA, 10 min: 0.061 µM
  Concentration (μM) of analyte PEA, 20 min: 0.043 µM
  Concentration (μM) of analyte PEA, 30 min: 0.029 µM
  Concentration (μM) of analyte PEA, 60 min: 0.018 µM
  % Remaining of Initial (n = 1), 0 min: 100%
  % Remaining of Initial (n = 1), 10 min: 66%
  % Remaining of Initial (n = 1), 20 min: 50%
  % Remaining of Initial (n = 1), 30 min: 59%
  % Remaining of Initial (n = 1), 60 min: 50%
male, Sprague-Dawley, rat
  Concentration (μM) of analyte PEA, 0 min: 0.020 µM
  Concentration (μM) of analyte PEA, 10 min: 0.025 µM
  Concentration (μM) of analyte PEA, 20 min: 0.037 µM
  Concentration (μM) of analyte PEA, 30 min: 0.026 µM
  Concentration (μM) of analyte PEA, 60 min: 0.013 µM
  % Remaining of Initial (n = 1), 0 min: 100%
  % Remaining of Initial (n = 1), 10 min: 98%
  % Remaining of Initial (n = 1), 20 min: 82%
  % Remaining of Initial (n = 1), 30 min: 75%
  % Remaining of Initial (n = 1), 60 min: 67%
  half-life at 1 μM: > 1 h
[1]
  half-life at 1 μM: 1.52 h
